From patent US4683237A, “Fluoroalkyl esters of dihydrolysergic acid useful as 5HT2 receptor antagonists” (Eli Lilly and Company, priority 1985, dated 1987)
Structures can show the parent of a compound that is named as a salt.

Assays:
[1] = system: 5HT2 receptors; conditions: in words; mediated by 5HT2 receptors; Cohen I; cited from earlier work
[2] = system: 5HT2 receptors; conditions: in words; Garbrecht compounds; cited from earlier work
[3] = system: vascular alpha adrenergic, dopaminergic and histaminergic receptors; conditions: in words; Cohen I; cited from earlier work
[4] = biological target: T1, 5HT2 receptors (Rattus norvegicus, UniProt P14842); experiment: Antagonism of serotonin contraction in isolated rat external jugular vein (apparent antagonist dissociation constant); design: species or system Male Wistar rats; conditions: serotonin agonist, antagonist incubated one hour, 37° C., read-out: -log KB ± S.E. (apparent antagonist dissociation constant) (converted)
T1 construct: Contraction to serotonin was evaluated in the jugular vein since this tissue produces marked responses to serotonin in the absence of alpha receptors; from tissue; host or cells: external jugular vein of male Wistar rats
T1 sequence (P14842 whole entry): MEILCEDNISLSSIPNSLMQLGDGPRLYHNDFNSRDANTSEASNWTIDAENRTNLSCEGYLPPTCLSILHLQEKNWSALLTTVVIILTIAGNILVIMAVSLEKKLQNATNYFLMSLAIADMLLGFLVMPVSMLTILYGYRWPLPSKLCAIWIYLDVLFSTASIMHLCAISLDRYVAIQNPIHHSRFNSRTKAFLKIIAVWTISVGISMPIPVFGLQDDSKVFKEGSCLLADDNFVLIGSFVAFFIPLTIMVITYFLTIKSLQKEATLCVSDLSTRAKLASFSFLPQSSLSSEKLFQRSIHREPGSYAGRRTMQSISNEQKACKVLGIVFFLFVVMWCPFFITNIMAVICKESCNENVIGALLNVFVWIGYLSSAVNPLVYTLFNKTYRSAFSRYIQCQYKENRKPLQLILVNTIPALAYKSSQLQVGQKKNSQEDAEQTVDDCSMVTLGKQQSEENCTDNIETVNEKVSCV
Protocol: An initial optimum resting force of 1 and 4 g was applied to the jugular vein and aorta, respectively. […] Exp. Ther., 205, 400 (1978). Alpha receptor antagonist activity was evaluated in the aorta.
The -log KB ±S.E. value obtained for 1-fluoromehtyl-2-fluoroethyl 1-isopropyl-9,10-dihydrolysergate maleate was 8.97±0.22.

Structure (SMILES)	antagonism of vascular contraction to serotonin [1]	peripheral serotonin antagonist activity against 5HT2 receptors [2]	affinity for vascular alpha adrenergic, dopaminergic and histaminergic receptors [3]	Kb [4] [nM]
CC(O)C(C)OC(=O)[C@@H]1C[C@@H]2c3cccc4c3c(cn4C(C)C)C[C@H]2N(C)C1 (stereo partly drawn) [LY53857, 1-isopropyl-6-methyl-8β-(1-methyl-2-hydroxy)propoxycarbonyl-5R-ergoline]	potent antagonist of vascular contraction to serotonin	most active peripheral serotonin antagonist from Garbrecht	minimal affinity	
CC(C)n1cc2c3c(cccc31)[C@H]1C[C@@H](C(=O)OC(CF)CF)CN(C)[C@@H]1C2 [1-fluoromethyl-2-fluoroethyl-1-isopropyl-9,10-dihydrolysergate maleate]				1.07
